{"source": "patent US8575116B1", "about": "“Polyacetylenic compounds for protecting against pancreatic islet atrophy” (Academia Sinica, priority 2010, dated 2013)", "key": {"STZ-treated C57BL mice": {"test_system": "STZ-treated C57BL mice", "assay": "Insulin sensitizer test: oral dose before insulin injection in STZ-treated C57BL mice", "type": "in vivo, mouse", "settings": "cytopiloyne 0.5 and 2.5, glimepiride 2.5, metformin 60 mgkg^−1 oral; insulin 2.5 IUkg^−1", "experimental": "FIGS. 3A-C show cytopiloyne-mediated insulin release depends on pancreatic islet cells. (A) Rat pancreatic islet cells were incubated with glucose-free KRB buffer containing vehicle or cytopiloyne at 1.5, 3, 7, 14, 28 and 42 μM (FIG. 3A-i). Similarly, rat pancreatic islet cells were incubated with KRB buffer containing vehicle, glimepiride (GLM, 10 μM) or cytopiloyne at 1.5, 3, 7, 14, 28 and 42 μM in the presence of 3.3 mM glucose (LG, FIG. 3A-ii) or 16.7 mM glucose (HG, FIG. 3A-iii). The insulin levels were determined using an insulin ELISA kit. The data presented as mean±SEM of 3 independent experiments. (B) Fed C57BL mice, which had already received an injection of STZ, were administered with an oral dose of vehicle, cytopiloyne (CP, 0.1, 0.5 and 2.5 mgkg^−1), and an intraperitoneal injection of insulin (Ins, 2.5 IUkg^−1). Blood sugar levels in the STZ-treated mice were determined using a glucometer. (C) C57BL mice, which had already received STZ, were orally administered with a single dose of vehicle, cytopiloyne (CP, 0.5 and 2.5 mgkg^−1), glimepiride (GLM, 2.5 mgkg^−1), or metformin (60 mgkg^−1), followed by an intraperitoneal injection with insulin (Ins). Blood sugar levels in the STZ-treated mice were determined using a glucometer. All the results from 3 independent experiments are expressed as mean±SEM, and P<0.05 was considered to be statistically significant (*). The number of mice (n) is indicated in parentheses.\nTo deplete pancreatic β-cells in mice, 6-week-old C57BL females (NLAC, Taipei, Taiwan) were intraperitoneally injected with STZ at 200 mgkg^−1. STZ-treated females with postprandial blood sugar over 500 mgdl^−1 were grouped. […] Blood glucose levels were monitored for 4 h. To distinguish sensitizer activity from releaser activity of cytopiloyne, STZ-treated C57BL mice were tube-fed with vehicle, glimepiride (2.5 mgkg^−1), metformin (60 mgkg^−1) or cytopiloyne (0.5 and 2.5 mgkg^−1) 1 h before insulin injection (2.5 IUkg^−1). Blood glucose levels in the mice were monitored from 0 to 4 h after insulin injection."}, "[1]": {"test_system": "human insulin promoter in HIT-T15 β-cells", "assay": "Insulin promoter (phINS-Luc) dual luciferase assay in HIT-T15 β-cells", "type": "cell-based, rat", "experimental": "FIGS. 4A-C show an increase in insulin mRNA and protein content by cytopiloyne in pancreatic islet cells. (A) HIT-T15 β-cells transfected with phINS-Luc and pRL-TK plasmids were incubated with vehicle (NS), glimepiride (GLM, 10 μM), high glucose (HG, 16.7 mM) or cytopiloyne at 7, 14 or 28 μM. Ten μg of cell lysates from these cells underwent to dual luciferase assays. […] (C) Rat pancreatic islet cells were treated with vehicle, glucose (3.3 mM (LG) or 16.7 mM (HG)) or cytopiloyne (CP, 7, 14 and 28 μM) in the presence of brefeldin A for 24 h. After anti-insulin antibody staining, these cells underwent FACS analysis. The percentage of insulin-positive β-cells is shown. All the results from 3 independent experiments are expressed as mean±SEM, and P<0.05 was considered to be statistically significant (*).\n(A) RIN-M5F cells were grown in medium with 16.7 mM (HG) or 3.3 mM glucose (LG) in the presence of PMA. GF and cytopiloyne. The insulin level of the supernatants was determined using an ELISA kit. (B) RIN-M5F cells were transfected with 5 μg of dominant-negative PKCα or control plasmid grown in medium with 16.7 mM (HG) or 3.3 mM glucose (LG) in the presence of PMA (1 μM), GF109203X (3 μM) or cytopiloyne. The insulin level of the supernatants was determined using an ELISA kit. (C) HIT-T15 cells were transfected with phINS-Luc and pRL-TK plasmids. The cells were grown in medium with 16.7 mM (HG) or 3.3 mM glucose (LG) in the absence or presence of PMA, GF109203X and cytopiloyne. The cell lysates were subjected to dual luciferase assays. (D) HIT-T15 cells were transfected with vehicle or dominant-negative PKCα plasmid together with phINS-Luc and pRL-TK plasmids. The cells were grown in medium with 16.7 mM (HG) or 3.3 mM glucose (LG) in the absence or presence of PMA and cytopiloyne. The cell lysates were subjected to dual luciferase assays.\nPlasmids phINS-Luc and pRL-TK contain a human insulin promoter (2347 bp) from phINS-DCR3 vector linked to a firefly luciferase gene and the thymidine kinase promoter linked to Renilla luciferase reporter gene, respectively. Dominant-negative PKCα, phINS-Luc and/or pRL-TK were transfected into HIT-T15 cells with lipofectamine or electroporation."}, "[2]": {"test_system": "insulin mRNA in rat primary pancreatic islet cells", "assay": "Real-time RT-PCR of insulin mRNA relative to L13 in rat pancreatic islet cells", "type": "cell-based"}, "RIN-m5F cells": {"test_system": "RIN-m5F cells", "assay": "DAG and cholesterol generation (3H-myristic acid, TLC) in RIN-m5F cells", "type": "cell-based, rat", "settings": "for level of DAG: versus vehicle control, glucose 16.7 mM", "experimental": "FIGS. 5A-D show the effects of cytopiloyne on calcium mobilization, DAG generation and PKCa activation. (A) After Fura 2-AM loading, RIN-m5F cells were stimulated with 16.7 mM glucose (HG) and cytopiloyne at 7, 14 and 28 μM. Level of intracellular calcium, as shown by the 340/380 nm ratio, was detected using a fluorescence spectrophotometer. (B) RIN-m5F cells were pulsed with ^3H-myristic acid (5 Cim1^−1) for 16 hours. After washing, the cells were stimulated with glucose, cytopiloyne, PMA and glimepiride. Total lipids were separated on a silica thin layer plate. DAG and cholesterol were visualized with iodine vapor and identified by their standards. (C) RIN-m5F cells were incubated with vehicle (Mock), cytopiloyne (CP, 3, 7 and 14 μM), PMA (1 μM) and 16.7 mM (HG). Membrane or cytosolic proteins were subjected to Western blot with anti-PKCα and anti-Actin antibodies. (D) RIN-m5F cells were incubated with vehicle (Mock), cytopiloyne (CP 7 μM) and PMA (1 μM). After lysis, total lystaes were subjected to Western blot with anti-PKCα, anti-phospho-PKCα and anti-Actin antibodies.\nRIN-m5F cells were incubated with ^3H-myristic acid ([…]) for 16 hours. After washing, the cells were treated with glucose, cytopiloyne, PMA and glimepiride. Total lipids were extracted as previously described. Radioactive DAG was separated on a silica thin layer plate with the first developer of ethylacetate: acetic acid: triethylpentane (9:2:5) and the second developer of hexane: diethylether: methanol: acetic acid (90:20:3:2). The spot of DAG was visualized with iodine vapor and identified by DAG standard."}}}
{"smiles": "CC#CC#CC#CC#CCCC(CO)O[C@@H]1O[C@H](CO)[C@@H](O)[C@H](O)[C@H]1O", "note": "(stereo partly drawn) [cytopiloyne, 2-β-D-glucopyranosyloxy-1-hydroxytrideca-5,7,9,11-tetrayne]", "values": [{"measurement": "blood sugar lowering when dosed 60 min before insulin injection", "setting": "STZ-treated C57BL mice", "result": "little, if any, lowering effect on blood sugar"}, {"measurement": "insulin transcription (reporter), fold increase", "setting": "[1]; 28 μM, HIT-T15 β-cells, 24 h", "result": 5, "unit": "times"}, {"measurement": "insulin transcription in HIT-T15 cells", "setting": "[1]; FIG. 6C, glucose 16.7 mM", "result": "stimulated insulin transcription"}, {"measurement": "up-regulation of insulin transcription relative to that by 16.7 mM glucose", "setting": "[2]; 28 μM (FIGS. 4A-B)", "result": 40, "unit": "%"}, {"measurement": "insulin mRNA relative to L13 mRNA, fold", "setting": "[2]; 28 μM, rat islet cells, 24 h", "result": "around 2 times"}, {"measurement": "level of cholesterol", "setting": "RIN-m5F cells", "result": "not cholesterol"}, {"measurement": "level of DAG", "setting": "RIN-m5F cells", "result": "dose-dependently increased the level of DAG"}]}
{"smiles": "CCC1=C(C)CN(C(=O)NCCc2ccc(S(=O)(=O)NC(=O)N[C@H]3CC[C@H](C)CC3)cc2)C1=O", "note": "[glimepiride, reference compound]", "values": [{"measurement": "blood sugar lowering when dosed 60 min before insulin injection", "setting": "STZ-treated C57BL mice", "result": "little, if any, lowering effect on blood sugar"}, {"measurement": "insulin transcription (reporter) compared to the control", "setting": "[1]; 10 μM, HIT-T15 β-cells, 24 h", "result": "no significant effect on insulin transcription"}, {"measurement": "insulin mRNA relative to L13 mRNA", "setting": "[2]; 10 μM, rat islet cells, 24 h", "result": "slightly decreased insulin transcription"}, {"measurement": "level of DAG", "setting": "RIN-m5F cells", "result": "significantly increased the level of DAG"}]}
